Test results as given in US6818657B1, “Bioprecursors of a retinoic derivative and pharmaceutical and/or cosmetic compositions” (Pierre Fabre Dermo-Cosmetique, priority 1999, dated 2004).
Values belong to the compound of their own block, whether it stands above or below them.

Tests used:
[1] = biological target: T1, recombinant β-glucocerebrosidase (Homo sapiens, UniProt P04062); assay: Michaelis constants (Km) and Vm of recombinant β-glucocerebrosidase for pseudosubstrates; assay type: biochemical; settings: phthalate buffer pH 5.6 (0.025 M), taurocholate 5 mM, purified β-glucocerebrosidase, 30 minutes incubation
T1 construct: histidine tail (His tag) (C); made in house
T1 sequence (P04062 40-536): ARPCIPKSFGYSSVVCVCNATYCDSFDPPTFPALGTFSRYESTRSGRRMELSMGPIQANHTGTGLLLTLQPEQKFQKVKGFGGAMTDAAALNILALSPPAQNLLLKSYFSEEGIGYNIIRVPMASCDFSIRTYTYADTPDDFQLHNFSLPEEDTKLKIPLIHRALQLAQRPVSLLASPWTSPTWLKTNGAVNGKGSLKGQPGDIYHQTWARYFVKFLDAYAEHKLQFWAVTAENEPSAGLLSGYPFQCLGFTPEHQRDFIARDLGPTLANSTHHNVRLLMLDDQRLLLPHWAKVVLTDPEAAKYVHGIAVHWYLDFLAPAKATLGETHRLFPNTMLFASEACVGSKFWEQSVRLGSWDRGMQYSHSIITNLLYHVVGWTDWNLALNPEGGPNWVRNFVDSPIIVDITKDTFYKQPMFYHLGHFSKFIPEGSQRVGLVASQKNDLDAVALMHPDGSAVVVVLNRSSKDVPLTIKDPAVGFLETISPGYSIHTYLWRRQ
Procedure: After confirming that β-glucocerebrosidase is expressed in the keratinocytes, we produced a recombinant enzyme in the baculovirus system. A histidine tail was added to the COOH end of the protein to allow it to be purified by affinity column chromatography.
Thus, we were able to determine the Michaelis constants (Km) and the Vm values of the recombinant β-glucocerebrosidase in particular for the retinoic acid-arbutin glucoconjugate. The kinetics measurements are carried out in a phthalate buffer at pH 5.6 (0.025 M) containing taurocholate (5 mM), purified β-glucocerebrosidase and the test conjugate at various concentrations. The incubation lasts 30 minutes and the amount of hydroquinone-retinoic acid conjugate released is assayed by HPLC. The table below gives the results obtained. […] As regards their rates of hydrolysis, these are lower and thus allow effects to be obtained over time.

[2] = Distribution in the stratum corneum after topical application; assay type: in vivo

Km [1]: 2800 ± 700 µM
Vm weighted by the amount of soluble proteins [1]: 4000 ± 1000 nmol/h/mg
SMILES: Cc1cc(=O)oc2cc(O[C@@H]3O[C@H](CO)[C@@H](O)[C@H](O)[C@H]3O)ccc12 [4-Methylumbelliferyl-glucopyranoside, 4-methyl-umbelliferyl-β-D-glucopyranoside]

SMILES: CC1=C(/C=C/C(C)=C/C=C/C(C)=C/C(=O)O)C(C)(C)CCC1 [retinoic acid]
location in the stratum corneum after topical application ([2]; in vivo): accumulate in the upper layers of the stratum corneum after topical application and are removed by desquamation

SMILES: Cc1c(C)c2c(c(C)c1O)CC[C@@](C)(CCC[C@H](C)CCC[C@H](C)CCCC(C)C)O2 [vitamin E (α-tocopherol), α-tocopherol]
location in the stratum corneum after topical application ([2]; topical application, same excipient): accumulate in the upper layers of the stratum corneum after topical application and are removed by desquamation

Vm weighted by the amount of soluble proteins [1]: 453 ± 20 nmol/h/mg
Km ([1]; HPLC assay): 7 ± 1 µM
SMILES: Cc1cc(O[C@@H]2O[C@H](CO)[C@@H](O)[C@H](O)[C@H]2O)cc2c1O[C@](C)(CCC[C@H](C)CCC[C@H](C)CCCC(C)C)CC2 [δ-Tocopheryl-glucopyranoside]
